Laboratory results from patent US12378186B2, “Inhibitors of meprin α and β” (VIVORYON THERAPEUTICS N.V., priority 2016, dated 2025).
Like-named read-outs stand apart in the source and are kept apart here.

How the values were obtained:
[1] = biological target: T1, hMeprin β (Homo sapiens, UniProt Q16820); experiment: Enzymatic assay, cleavage of internally quenched peptide substrate, hMeprin β; type: biochemical
T1 sequence (Q16820 62-701): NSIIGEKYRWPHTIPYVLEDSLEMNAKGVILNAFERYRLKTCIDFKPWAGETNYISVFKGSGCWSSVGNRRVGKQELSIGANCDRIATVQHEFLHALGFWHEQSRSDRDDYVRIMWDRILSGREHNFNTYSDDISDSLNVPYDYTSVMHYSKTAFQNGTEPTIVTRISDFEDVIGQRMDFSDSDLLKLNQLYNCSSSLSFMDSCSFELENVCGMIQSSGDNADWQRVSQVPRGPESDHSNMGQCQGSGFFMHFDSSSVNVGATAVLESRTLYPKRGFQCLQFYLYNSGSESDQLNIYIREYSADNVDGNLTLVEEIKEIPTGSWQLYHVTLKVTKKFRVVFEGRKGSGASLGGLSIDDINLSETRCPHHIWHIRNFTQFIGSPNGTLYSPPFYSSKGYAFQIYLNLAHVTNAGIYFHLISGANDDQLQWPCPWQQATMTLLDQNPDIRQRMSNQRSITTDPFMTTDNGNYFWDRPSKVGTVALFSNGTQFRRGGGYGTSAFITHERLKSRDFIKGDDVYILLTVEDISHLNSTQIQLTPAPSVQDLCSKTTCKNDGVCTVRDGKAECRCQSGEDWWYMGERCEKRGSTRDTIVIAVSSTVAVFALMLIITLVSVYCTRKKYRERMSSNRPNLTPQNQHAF
Protocol: (§1) A typical assay of 250 μl total volume measured in black 96 well plates consisted of 100 μl buffer, 50 μl enzyme at a final concentration of 5e-8 M to 5e-9 M, 50 μl substrate (0.15 to 80 μM, in buffer, 0.5% DMSO) and 50 μl inhibitor solution (in buffer, 1% DMSO). In case of 125 μl assay volume (black 96 half area well plates) all volumes were cut in half. Enzymatic activity of ADAMs was measured in 384 well plates with 60 μl total assay volume consisting of 20 μl inhibitor, 20 μl buffer, 10 μl enzyme and 10 μl substrate.
(§2) Ki values were assessed combining 4 substrate concentrations (5-40 μM) with at least 5 inhibitor concentrations. […] Initial velocities were determined and converted into concentration units applying a standard curve obtained after complete conversion of different substrate concentrations under assay conditions. All measurements were performed using a fluorescence plate reader (FLUOstar OPTIMA, BMG Labtech) at 30° C. The kinetic parameters were determined at least in duplicates on separate days. The excitation/emission wavelength was 340/420 nm. The kinetic data was evaluated using GraFit software (version 7.0.3, Erithacus Software).
(§3) The following compounds according to the present invention were synthesized using the above general procedures. IC50 refers to the average IC50 values measured as described above, SD (IC50) refers to the standard deviation of the average IC50 values, Ki refers to the average K; values measured as described above, and SD (Ki) to the standard deviation of the average Ki values.

[2] = biological target: T2, hMeprin α (Homo sapiens, UniProt Q16819); experiment: biochemical; type: biochemical; details: 30° C., 40 mM HEPES pH 7.4; for IC50: average IC50, 10 μM substrate, read-out: Meprin Alpha IC50; for Ki: average Ki, 4 substrate concentrations (5-40 μM), read-out: Meprin Alpha Ki
T2 sequence (Q16819 66-746): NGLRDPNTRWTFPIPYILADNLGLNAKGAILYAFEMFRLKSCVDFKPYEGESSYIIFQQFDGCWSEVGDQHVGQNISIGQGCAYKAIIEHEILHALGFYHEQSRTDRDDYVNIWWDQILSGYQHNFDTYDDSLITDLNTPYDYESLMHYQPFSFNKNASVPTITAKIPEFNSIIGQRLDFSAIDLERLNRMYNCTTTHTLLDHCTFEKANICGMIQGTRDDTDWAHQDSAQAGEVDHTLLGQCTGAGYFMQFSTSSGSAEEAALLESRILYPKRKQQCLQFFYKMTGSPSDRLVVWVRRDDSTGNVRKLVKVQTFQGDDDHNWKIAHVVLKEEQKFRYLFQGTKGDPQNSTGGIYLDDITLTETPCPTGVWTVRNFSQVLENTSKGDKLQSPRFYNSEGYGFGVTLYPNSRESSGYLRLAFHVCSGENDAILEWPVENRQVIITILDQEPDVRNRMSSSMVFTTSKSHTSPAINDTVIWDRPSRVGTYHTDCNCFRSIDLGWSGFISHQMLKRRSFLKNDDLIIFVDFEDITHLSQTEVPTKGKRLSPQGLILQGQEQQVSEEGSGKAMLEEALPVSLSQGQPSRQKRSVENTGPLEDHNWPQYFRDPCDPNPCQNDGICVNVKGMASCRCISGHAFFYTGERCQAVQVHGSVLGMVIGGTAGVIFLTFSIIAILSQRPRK
Protocol: as §1, §2, §3

[3] = average IC50, 10 μM substrate, 30° C., 40 mM Tris pH 8.0, read-out: Meprin Beta IC50

Structure (SMILES) | Ki [1] [nM] | IC50 [2] [nM] | Ki [2] [nM] | IC50 [1] [nM] | IC50 [1, 3] [nM]
O=C(CN(Cc1cccc(C(=O)O)c1)Cc1ccc2c(c1)OCO2)NO [Example 22, 3-[[1,3-Benzodioxol-5-ylmethyl-[2-(hydroxy-amino)-2-oxo-ethyl]amino]-methyl]benzoic acid] | 105 | 1430 | 606 | – | –
COc1ccc(CN(CC(=O)NO)Cc2ccc3c(c2)OCO3)cc1 [Example 23] | – | 1680 | – | 20000 | –
COc1ccc(CN(CC(=O)NO)Cc2ccc(C)cc2)cc1 [Example 24, 2-[(4-Methoxyphenyl)methyl-(p-tolylmethyl)-amino]ethanehydroxamic acid] | – | 2330 | – | 60900 | –
COc1ccc(CN(CC(=O)NO)Cc2ccc(F)cc2)cc1 [Example 25, 2-[(4-fluorophenyl)methyl-[(4-methoxyphenyl)-methyl]amino]ethanehydroxamic acid] | – | 4130 | – | 80400 | –
COc1ccc(CN(CC(=O)NO)Cc2ccc(Cl)cc2)cc1 [Example 26, 2-[(4-Chlorophenyl)methyl-[(4-methoxyphenyl)-methyl]amino]ethanehydroxamic acid] | – | 1990 | – | 53400 | –
COc1ccc(CN(CC(=O)NO)Cc2cccc(OC)c2)cc1 [Example 27, 2-[(3-Methoxyphenyl)methyl-[(4-methoxyphenyl)-methyl]amino]ethanehydroxamic acid] | – | 3200 | – | 34500 | –
C[C@H](NCc1cccc(C(=O)O)c1)C(=O)NO [Example 28, 3-[[[(1S)-2-(Hydroxyamino)-1-methyl-2-oxo-ethyl]amino]methyl]benzoic acid] | 3100 | 16700 | – | – | 4200
CC(C)[C@H](NCc1cccc(C(=O)O)c1)C(=O)NO [Example 29, 3-[[[(1S)-1-(Hydroxycarbamoyl)-2-methyl-propyl]amino]methyl]benzoic acid] | – | 44400 | – | – | 15800
O=C(O)c1cccc(CN[C@@H](Cc2ccccc2)C(=O)NO)c1 [Example 30, 3-[[[(1S)-1-Benzyl-2-(hydroxyamino)-2-oxo-ethyl]amino]methyl]benzoic acid] | – | 10200 | – | – | 15500
COc1ccc(CN(CCC(=O)NO)Cc2cccc(C(=O)O)c2)cc1 [Example 31, 3-[[[3-(Hydroxyamino)-3-oxo-propyl]-[(4-methoxyphenyl)methyl]amino]-methyl]benzoic acid] | 165 | 233 | 87 | – | 643
CC(C)(NCc1cccc(C(=O)O)c1)C(=O)NO [Example 32, 3-[[[2-(Hydroxyamino)-1,1-dimethyl-2-oxo-ethyl]amino]methyl]benzoic acid] | – | 265000 | – | 39300 | –
C[C@@H](NCc1cccc(C(=O)O)c1)C(=O)NO [Example 33, 3-{[[(1R)-2-(Hydroxyamino)-1-methyl-2-oxo-ethyl]amino]methyl]benzoic acid] | 2580 | 45100 | – | – | 4260
CC(C)[C@@H](NCc1cccc(C(=O)O)c1)C(=O)NO [Example 34, 3-[[[(1R)-1-(Hydroxycarbamoyl)-2-methyl-propyl]amino]methyl]benzoic acid] | – | 30000 | – | – | 11800
O=C(O)c1cccc(CN[C@H](Cc2ccccc2)C(=O)NO)c1 [Example 35, 3-[[[(1R)-1-Benzyl-2-(hydroxyamino)-2-oxo-ethyl]amino]methyl]benzoic acid] | 1360 | 2650 | – | – | 2910
O=C(O)c1cccc(CN[C@@H](C(=O)NO)c2ccccc2)c1 [Example 36, 3-[[[(1R)-2-(Hydroxyamino)-2-oxo-1-phenyl-ethyl]amino]methyl]benzoic acid] | – | 21700 | – | – | 11600
O=C(O)c1cccc(CN[C@H](C(=O)NO)c2ccccc2)c1 [Example 37, 3-[[[(1S)-2-(Hydroxyamino)-2-oxo-1-phenyl-ethyl]amino]methyl]benzoic acid] | – | 26300 | – | – | 12200
COc1ccc(CN(CCCC(=O)NO)Cc2cccc(C(=O)O)c2)cc1 [Example 38, 3-[[[4-(hydroxyamino)-4-oxo-butyl]-[(4-methoxyphenyl)methyl]amino]-methyl]benzoic acid] | 225 | 2610 | 948 | – | 742
O=C(O)CC[C@H](NCc1cccc(C(=O)O)c1)C(=O)NO [Example 39, 3-[[[(1S)-3-carboxy-1-(hydroxylcarbamoyl)-propyl]amino]methyl]benzoic acid] | 325 | 8660 | 2530 | – | 654
N#Cc1cccc(CN(CC(=O)NO)Cc2cccc(C#N)c2)c1 [Example 40, 2-[bis[(3-cyanophenyl)methyl]amino]-ethanehydroxamic acid] | – | 1460 | 521 | – | 12000
NC(=O)c1cccc(CN(CC(=O)NO)Cc2cccc(C(N)=O)c2)c1 [Example 41, 3-[[(3-carbamoylphenyl)methyl-[2-(hydroxyamino)-2-oxo-ethyl]amino]methyl]benzamide] | – | 2900 | 852 | – | 13100
COC(=O)c1cccc(CN(CC(=O)NO)Cc2cccc(C(N)=O)c2)c1 [Example 42] | – | 3540 | 1190 | 25000 | –
COC(=O)c1cccc(CN(CC(=O)NO)Cc2cccc(C(=O)O)c2)c1 [Example 43] | 152 | 6280 | 1740 | 516 | –
O=C(O)CC[C@@H](NCc1cccc(C(=O)O)c1)C(=O)NO [Example 44, 3-[[[(1R)-3-carboxy-1-(hydroxycarbamoyl)-propyl]amino]methyl]benzoic acid] | 277 | 32100 | – | – | 768
O=C(O)C[C@H](NCc1cccc(C(=O)O)c1)C(=O)NO [Example 45, 3-[[[(1S)-1-(carboxymethyl)-2-(hydroxyamino)-2-oxo-ethyl]amino]methyl]benzoic acid] | 644 | 60400 | – | – | 1320
O=C(O)C[C@@H](NCc1cccc(C(=O)O)c1)C(=O)NO [Example 46, 3-[[[(1R)-1-(carboxymethyl)-2-(hydroxyamino)-2-oxo-ethyl]amino]methyl]benzoic acid] | 254 | 15100 | – | – | 548
O=C(CN(Cc1ccc(F)c(O)c1F)Cc1ccc(F)c(O)c1F)NO [Example 47, 2-[bis[(2,4-difluoro-3-hydroxy-phenyl)-methyl]amino]ethanehydroxamic acid] | 12 | 626 | 189 | – | 23
O=C(CN(Cc1cc(F)c(O)c(F)c1)Cc1cc(F)c(O)c(F)c1)NO [Example 48, 2-[bis[(3,5-difluoro-4-hydroxy-phenyl)methyl]-amino]ethanehydroxamic acid] | 118 | 1300 | 263 | – | 272
